“Also recorded” adds a separate entry of the source.
Experiments:
INS-1E cells = assay: Luciferase Insulin Secretion Assay (proinsulin-Gaussia luciferase reporter); format: cell-based, rat; design: key to Activity: Active: a compound is identified as active if the compound has a Z-score greater than 3 in the presence of 16.7 mM glucose; Partial activity indicates that the compound does promote insulin secretion (at lower Z-scores); Lost Glucose Dependence: In some cases, insulin secretion was promoted at both measured insulin concentrations; details: for Activity: glucose dependence of insulin secretion, Z-score in the presence of 16.7 mM glucose; for glucose-dependent (glucose-stimulated) insulin secretion, luciferase reporter / effect on glucose-stimulated insulin secretion at high concentrations: INS-1E cells; for glucose-dependent (glucose-stimulated) insulin secretion, luciferase reporter: 2.8 mM vs 16.7 mM glucose; for effect on glucose-stimulated insulin secretion at high concentrations: high compound concentrations
Source text: A high-throughput luminescent insulin secretion assay was developed and performed to identify compounds that amplified insulin secretion only in the presence of a permissive glucose environment (FIG. 3). The assay used in compound screening is described in International Patent Publication No. WO2013070796A3, PCT/US2012/063982, and in Burns et al., High-Throughput Luminescent Reporter of Insulin Secretion for Discovering Regulators of Pancreatic Beta-Cell Function. Cell Metab. 2015 Jan. 6; 21(1):126-37.
The assay is a luminescent insulin secretion assay created by inserting Gaussia luciferase within the C-peptide portion of the insulin prohormone. Gaussia luciferase was chosen because of its small size and bright luciferase signal. To ensure full activity of the luciferase, a version was used that was codon-optimized for expression in mammalian cells. The enzyme was flanked with additional cleavage sites for prohormone convertase 2 (PC2), such that no extra amino acids should be present on the ends of the enzyme after processing within the vesicles (FIG. 4). Rat (INS-1E; Merglen et al., 2004) beta-cell lines stably expressing the reporter construct were generated. Assays using this cell type are referred to herein as Luciferase Insulin Secretion Assay.
A search for glucose-dependent insulin secretagogues was conducting by screening 384,216 compounds at a single concentration (10 μM) in duplicate using the Luciferase Insulin Secretion Assay, to identify those that increase insulin secretion only in the presence of high glucose (11.1 mM) (FIG. 6). These assays were performed in 1536 well format. A Z′ factor of 0.35 was obtained with respect the positive control (300 μM IBMX). The cutoff value selected was 45% activation, which was 3-4 standard deviations above background (solid uppermost line; FIG. 6).
For standard secretion assays, INS-1E cells were plated in 96-well format, preincubated for 1 hr in Krebs Ringer Buffer (KRB) with 2.8 mM glucose, and then stimulated for 1 hr in fresh KRB containing varying amounts of glucose and compounds. Insulin or C-peptide concentration was determined using an ELISA (Mercodia), following the manufacturer's protocol. Luciferase activity was determined from the same samples by adding the coelenterazine substrate to the supernatant to a final concentration of 10 μM and reading on a standard plate reader (BioTek).
INS-1E cells were expanded to 80% confluence in their growth medium, washed once in PBS, and preincubated for 1 hr at 37° C. in KRB with 2.8 mM glucose. Cells were then dissociated, spun at 300×g for 2 min, resuspended in fresh KRB without glucose, and filtered through 40 μm mesh (Becton Dickinson). Next, the cells were counted and diluted in KRB to 1×10^6 cells per ml, and glucose was added as required for each experiment. Cells were then seeded in 384-well format, 3×10^4 cells in 30 μl per well, using a Multidrop Combi device (Thermo Scientific). Compounds were pinned into each well using a Vario robot (CyBio) to a final concentration of 30 μM, and the plates were then incubated for 2 hr at 37° C. For assays involving a transfer step, the plates were then centrifuged at 300×g for 2 min, and 20 μl of supernatant was transferred to a new 384-well plate. Coelenterazine substrate was then added to a final concentration of 10 μM, and luciferase activity was determined using a standard plate reader (BioTek).

[1] = Solubility (medicinal chemistry measurements); format: physicochemical; details: relative to Compound 8
alpha-TC-1-6 = assay: Luminescent glucagon secretion assay in alpha-cell line; format: cell-based; details: compared with DMSO negative control
Procedure: FIG. 10 depicts the quantification of α-cell secretory activity in cells treated with DMSO, KCl, or Compound 8, using a luminescent assay for glucagon secretion.
To investigate the cell-type specificity of the compound, and to exclude the possibility that Compound 8 acts as a generic secretagogue, the compound was tested on secretion from a rodent alpha-cell line, “alpha-TC-1-6,” using a luciferase reporter for glucagon secretion that mirrors the insulin secretion assay (FIG. 10).

Plasma stability, human = format: in vitro ADME
Procedure: (§1) Measurements were performed on human, mouse (CD-1) and rat (SD) microsomes to determine the t1/2, the plasma protein binding (“PPB”) and the plasma stability (“PS”).

Plasma stability, rat = format: in vitro ADME
Procedure: as §1

Plasma stability, mouse = format: in vitro ADME
Procedure: as §1

Row | Compound | Activity (INS-1E cells) | further results
1 | Cc1cccc(NC(=O)c2ccc(OCc3c(C)cncc3C)cc2)c1C [Compound 49, N-(2,3-Dimethyl-phenyl)-4-(3,5-dimethyl-pyridin-4-ylmethoxy)-benzamide] | Inactive | EC50 (INS-1E cells; Rattus norvegicus, INS-1E, glucose concentration of 16.7 mM): ~82 nM; solubility [1]: lower solubility than Compound 8
2 | Cc1noc(C)c1COc1ccc(C(=O)Nc2cccc3c2CCC3)cc1 [Compound 81, 4-(3,5-Dimethyl-isoxazol-4-ylmethoxy)-N-indan-4-yl-benzamide] | Inactive | 
3 | Cc1cccc(NC(=O)c2ccc(OCc3c(C)noc3C)cc2)n1 [Compound 82] | Inactive | 
4 | Cc1noc(C)c1COc1ccc(C(=O)Nc2cccc(C#N)c2C)cc1 [Compound 83, N-(3-Cyano-2-methyl-phenyl)-4-(3,5-dimethyl-isoxazol-4-ylmethoxy)-benzamide] | Inactive | 
5 | COCc1cccc(NC(=O)c2ccc(OCc3c(C)noc3C)cc2)c1 [Compound 84, 4-(3,5-Dimethyl-isoxazol-4-ylmethoxy)-N-(3-methoxymethyl-phenyl)-benzamide] | Inactive | 
6 | CC(=O)c1ccccc1NC(=O)c1ccc(OCc2c(C)noc2C)cc1 [Compound 85] | Inactive | 
7 | Cc1noc(C)c1COc1ccc(C(=O)NC2CCCO2)cc1 (centres unmarked) [Compound 86] | Inactive | 
8 | CC(=O)NCCCc1cc(C(=O)Nc2cccc(C)c2C)ccc1OCc1c(C)noc1C [Compound 88, 3-(3-Acetylamino-propyl)-4-(3,5-dimethyl-isoxazol-4-ylmethoxy)-N-(2,3-dimethyl-phenyl)-benzamide] | Active | 
9 | Cc1cccc(NC(=O)c2ccc(OCc3c(C)noc3C)c(CCCN=[N+]=[N-])c2)c1C [Compound 89, 3-(3-Azido-propyl)-4-(3,5-dimethyl-isoxazol-4-ylmethoxy)-N-(2,3-dimethyl-phenyl)-benzamide] | Inactive | 
10 | CC(=O)NCc1ccccc1NC(=O)c1ccc(OCc2c(C)noc2C)cc1 [Compound 90, N-[2-(Acetylamino-methyl)-phenyl]-4-(3,5-dimethyl-isoxazol-4-ylmethoxy)-benzamide] | Inactive | 
11 | CC(=O)NCc1cccc(NC(=O)c2ccc(OCc3c(C)noc3C)cc2)c1 [Compound 91, N-[3-(Acetylamino-methyl)-phenyl]-4-(3,5-dimethyl-isoxazol-4-ylmethoxy)-benzamide] | Inactive | 
12 | Cc1cc(OCc2c(C)noc2C)ccc1-c1cnc(-c2cccc(C)c2C)[nH]1 [Compound 93] | Inactive | 
13 | Cc1cccc(-c2cnc(-c3ccc(OCc4c(C)noc4C)cc3)[nH]2)c1C [Compound 94] | Inactive | 
14 | Cc1cccc(-c2cc(-c3ccc(OCc4c(C)noc4C)cc3)n[nH]2)c1C [Compound 95] | Inactive | 
15 | COCc1ccccc1NC(=O)c1ccc(OCc2c(C)noc2C)cc1 [Compound 96, 4-(3,5-Dimethyl-isoxazol-4-ylmethoxy)-N-(2-methoxymethyl-phenyl)-benzamide] | Inactive | 
16 | Cc1cccc(NS(=O)(=O)c2ccc(OCc3c(C)noc3C)cc2)c1C [Compound 97, 4-(3,5-Dimethyl-isoxazol-4-ylmethoxy)-N-(2,3-dimethyl-phenyl)-benzenesulfonamide] | Inactive | 
17 | Cc1sc2c(c1C)C(c1ccc(Cl)cc1)=N[C@@H](CC(=O)OC(C)(C)C)c1nnc(C)n1-2 [JQ1, reference compound] |  | glucose-dependent (glucose-stimulated) insulin secretion, luciferase reporter (INS-1E cells): None of the compounds assayed increased glucose-dependent insulin secretion; also recorded: No increase in secretion; also recorded: small effect; effect on glucose-stimulated insulin secretion at high concentrations (INS-1E cells): inhibitory effects; also recorded: decrease in glucose-stimulated secretion
18 | [Cl-].[K+] [KCl, potassium chloride, reference compound] |  | alpha-cell secretory activity (luciferase reporter for glucagon secretion) (alpha-TC-1-6): causes secretion
19 | COc1ccccc1S(=O)(=O)Nc1ccc2c(c1)CN(C)C(=O)N2 [PF1, reference compound] |  | glucose-dependent (glucose-stimulated) insulin secretion, luciferase reporter (INS-1E cells): neither of the known bromodomain inhibitors (PF1 or CBP30) affect secretion to the extent of Compound 8
20 | COc1ccccc1S(=O)(=O)Nc1ccc2c(c1)CN(C)C(=O)N2 [PF-1, reference compound] |  | glucose-dependent (glucose-stimulated) insulin secretion, luciferase reporter (INS-1E cells): None of the compounds assayed increased glucose-dependent insulin secretion; effect on glucose-stimulated insulin secretion at high concentrations (INS-1E cells): inhibitory effects
21 | COc1ccc(CCc2nc3cc(-c4c(C)noc4C)ccc3n2C[C@H](C)N2CCOCC2)cc1Cl [SGC-CBP30, reference compound] |  | glucose-dependent (glucose-stimulated) insulin secretion, luciferase reporter (INS-1E cells): None of the compounds assayed increased glucose-dependent insulin secretion; effect on glucose-stimulated insulin secretion at high concentrations (INS-1E cells): inhibitory effects
22 | CC1CC(OC(=O)C(O)c2ccccc2)CC(C)(C)N1C (centres unmarked) [eucatropine, reference compound] |  | PS (Plasma stability, human): 1.1 % remaining; PS (Plasma stability, rat): 32.4 % remaining; PS (Plasma stability, mouse): 24.6 % remaining

From patent US11555031B2, “Compounds and methods for regulating insulin secretion” (The Broad Institute, Inc., priority 2017, dated 2023)
